Results taken from ChEMBL document CHEMBL4261555, “Identification of a potent kinase inhibitor targeting EML4-ALK fusion protein in non-small cell lung cancer” (Medchemcomm, 2017).
pEC50, pIC50: −log10 of the molar value. Active and inactive are the calls of the source. The rule behind the calls is not given here.

Tests used:
[1] = biological target: T1, ALK tyrosine kinase receptor (Homo sapiens, UniProt Q9UM73); test: Inhibition of EML4-fused ALK in human NCI-H2228 cells assessed as suppression of AKT phosphorylation after 48 hrs by Western blot method; type: cell-based
Target sequence in this assay (Q9UM73 19-1620 limits assumed): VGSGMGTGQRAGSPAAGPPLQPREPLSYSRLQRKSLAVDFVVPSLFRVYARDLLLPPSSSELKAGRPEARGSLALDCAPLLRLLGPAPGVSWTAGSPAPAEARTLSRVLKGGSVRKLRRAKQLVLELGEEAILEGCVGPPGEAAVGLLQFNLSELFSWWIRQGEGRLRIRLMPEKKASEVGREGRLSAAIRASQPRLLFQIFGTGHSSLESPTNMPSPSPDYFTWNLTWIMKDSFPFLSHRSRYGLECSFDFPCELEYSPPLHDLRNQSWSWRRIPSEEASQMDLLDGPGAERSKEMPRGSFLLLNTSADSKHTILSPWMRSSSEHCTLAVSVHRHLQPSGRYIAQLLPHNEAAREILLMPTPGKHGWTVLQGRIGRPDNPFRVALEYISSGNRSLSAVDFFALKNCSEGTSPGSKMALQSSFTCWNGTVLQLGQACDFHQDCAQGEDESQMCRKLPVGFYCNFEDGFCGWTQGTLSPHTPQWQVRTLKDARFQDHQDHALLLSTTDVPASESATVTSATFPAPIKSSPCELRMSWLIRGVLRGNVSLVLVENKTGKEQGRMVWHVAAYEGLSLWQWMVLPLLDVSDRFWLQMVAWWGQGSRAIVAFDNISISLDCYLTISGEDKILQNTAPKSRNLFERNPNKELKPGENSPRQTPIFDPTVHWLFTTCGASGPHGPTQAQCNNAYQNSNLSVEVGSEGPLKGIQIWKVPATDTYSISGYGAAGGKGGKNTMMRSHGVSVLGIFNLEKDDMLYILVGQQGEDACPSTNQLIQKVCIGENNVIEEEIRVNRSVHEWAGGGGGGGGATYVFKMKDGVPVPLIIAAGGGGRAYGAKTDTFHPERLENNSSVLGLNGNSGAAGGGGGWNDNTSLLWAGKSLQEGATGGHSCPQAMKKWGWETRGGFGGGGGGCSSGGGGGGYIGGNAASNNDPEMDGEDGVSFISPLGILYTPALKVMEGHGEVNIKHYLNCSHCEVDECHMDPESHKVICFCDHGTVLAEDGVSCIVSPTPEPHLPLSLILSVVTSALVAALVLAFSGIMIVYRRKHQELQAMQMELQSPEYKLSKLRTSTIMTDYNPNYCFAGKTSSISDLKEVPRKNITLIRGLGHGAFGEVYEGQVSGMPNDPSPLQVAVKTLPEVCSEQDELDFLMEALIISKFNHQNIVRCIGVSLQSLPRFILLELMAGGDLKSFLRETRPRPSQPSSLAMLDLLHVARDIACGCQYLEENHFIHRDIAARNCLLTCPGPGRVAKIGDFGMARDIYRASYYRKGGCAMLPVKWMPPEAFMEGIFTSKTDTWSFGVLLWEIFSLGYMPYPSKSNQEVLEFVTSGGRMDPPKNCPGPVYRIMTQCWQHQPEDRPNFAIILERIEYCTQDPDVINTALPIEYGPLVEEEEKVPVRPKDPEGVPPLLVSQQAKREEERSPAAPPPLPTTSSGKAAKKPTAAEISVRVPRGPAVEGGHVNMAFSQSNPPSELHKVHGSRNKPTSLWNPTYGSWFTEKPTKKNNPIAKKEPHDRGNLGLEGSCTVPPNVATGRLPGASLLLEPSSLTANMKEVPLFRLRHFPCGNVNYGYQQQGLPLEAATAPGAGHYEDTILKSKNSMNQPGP

[2] = biological target: T1, ALK tyrosine kinase receptor; test: Inhibition of EML4-fused ALK in human NCI-H2228 cells assessed as suppression of ERK1/2 phosphorylation after 48 hrs by Western blot method; type: cell-based
Target sequence in this assay (Q9UM73 19-1620 limits assumed): as above

[3] = system: NCI-H2228; test: Induction of apoptosis in human NCI-H2228 cells at 10 uM after 48 hrs by annexin V-FITC/propidium iodide staining-based flow cytometric method (reference value: 4.5%); type: functional
[4] = biological target: T1, ALK tyrosine kinase receptor; test: Inhibition of EML4-fused ALK in human NCI-H2228 cells assessed as suppression of STAT3 phosphorylation after 48 hrs by Western blot method; type: cell-based
Target sequence in this assay (Q9UM73 19-1620 limits assumed): as above

[5] = system: NCI-H2228; test: cells; conditions: Homo sapiens, NCI-H2228, 72 h
Description: (§1) Cytotoxicity against human NCI-H2228 cells harboring EML4-ALK fusion protein assessed as decrease in cell viability after 72 hrs by MTT assay

[6] = biological target: T1, ALK tyrosine kinase receptor
Target sequence in this assay (Q9UM73 whole entry, the tested form may be a part): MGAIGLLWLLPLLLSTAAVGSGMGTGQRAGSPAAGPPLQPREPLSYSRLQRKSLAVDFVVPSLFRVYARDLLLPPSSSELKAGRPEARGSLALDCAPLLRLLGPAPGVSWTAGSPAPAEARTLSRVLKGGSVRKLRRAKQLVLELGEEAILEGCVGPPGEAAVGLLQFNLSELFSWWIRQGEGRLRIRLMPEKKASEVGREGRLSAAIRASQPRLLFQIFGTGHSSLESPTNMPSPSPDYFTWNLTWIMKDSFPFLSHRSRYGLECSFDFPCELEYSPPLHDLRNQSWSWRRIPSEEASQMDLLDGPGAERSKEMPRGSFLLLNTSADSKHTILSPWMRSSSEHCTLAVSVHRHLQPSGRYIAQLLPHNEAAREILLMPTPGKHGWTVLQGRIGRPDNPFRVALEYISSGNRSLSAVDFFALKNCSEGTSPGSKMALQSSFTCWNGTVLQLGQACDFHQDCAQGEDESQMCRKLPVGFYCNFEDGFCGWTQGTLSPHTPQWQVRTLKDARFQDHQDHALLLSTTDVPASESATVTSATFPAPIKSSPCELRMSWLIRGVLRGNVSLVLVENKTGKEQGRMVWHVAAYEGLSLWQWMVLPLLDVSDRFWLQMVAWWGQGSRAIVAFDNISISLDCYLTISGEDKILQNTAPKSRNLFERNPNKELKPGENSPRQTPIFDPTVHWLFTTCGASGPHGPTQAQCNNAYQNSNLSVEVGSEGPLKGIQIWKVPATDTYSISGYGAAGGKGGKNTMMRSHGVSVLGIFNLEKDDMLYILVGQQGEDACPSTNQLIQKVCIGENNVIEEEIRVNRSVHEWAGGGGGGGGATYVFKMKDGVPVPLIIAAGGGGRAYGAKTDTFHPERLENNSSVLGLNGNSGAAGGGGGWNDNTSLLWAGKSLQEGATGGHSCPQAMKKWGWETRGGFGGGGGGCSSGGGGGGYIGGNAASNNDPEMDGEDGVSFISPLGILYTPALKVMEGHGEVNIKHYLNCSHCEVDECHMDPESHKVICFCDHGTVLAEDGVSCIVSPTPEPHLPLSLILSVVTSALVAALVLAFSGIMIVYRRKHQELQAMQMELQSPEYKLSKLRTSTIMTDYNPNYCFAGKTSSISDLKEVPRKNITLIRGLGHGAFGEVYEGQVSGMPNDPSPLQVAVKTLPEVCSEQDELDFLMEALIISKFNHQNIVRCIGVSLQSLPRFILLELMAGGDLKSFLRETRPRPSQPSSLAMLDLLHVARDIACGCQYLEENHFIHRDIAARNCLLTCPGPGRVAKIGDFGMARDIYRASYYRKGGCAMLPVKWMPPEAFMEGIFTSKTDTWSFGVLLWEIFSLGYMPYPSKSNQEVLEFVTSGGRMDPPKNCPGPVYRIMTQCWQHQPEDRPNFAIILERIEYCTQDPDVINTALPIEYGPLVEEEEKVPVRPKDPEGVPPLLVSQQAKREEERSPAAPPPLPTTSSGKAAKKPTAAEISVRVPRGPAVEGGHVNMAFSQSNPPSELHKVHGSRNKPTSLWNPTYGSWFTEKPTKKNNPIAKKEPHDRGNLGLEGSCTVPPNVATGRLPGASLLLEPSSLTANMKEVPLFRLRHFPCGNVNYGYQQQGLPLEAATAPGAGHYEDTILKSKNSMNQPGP
Description: Inhibition of recombinant ALK (unknown origin) after 1 hr by fluorescence assay

[7] = system: NCI-H2228; test: Induction of apoptosis in human NCI-H2228 cells after 48 hrs by annexin V-FITC/propidium iodide staining-based flow cytometric method; type: functional, cell-based
[8] = system: NCI-H2228; conditions: Homo sapiens
Description: as §1

[9] = biological target: T1, ALK tyrosine kinase receptor; test: Inhibition of EML4-fused ALK autophosphorylation at Tyr1282/1283 in human NCI-H2228 cells at 2.5 to 10 uM after 48 hrs by Western blot method; type: cell-based
Target sequence in this assay (Q9UM73 19-1620 limits assumed): as the sequence (Q9UM73 19-1620 limits assumed) above

[10] = system: NCI-H2228; test: Anticlonogenic activity against human NCI-H2228 cells treated every 3 days for 10 days by crystal violet staining based assay; type: functional, cell-based
[11] = system: NCI-H2228; test: Induction of apoptosis in human NCI-H2228 cells at 5 uM after 48 hrs by annexin V-FITC/propidium iodide staining-based flow cytometric method (reference value: 4.5%); type: functional

For CC1=C(C)C2C(=O)N3N=C(NCCCN(C)C)c4ccccc4C3=NC2S1 (stereo unspecified), which inhibition [1] is on record?
Its inhibition is “Dose-dependent effect”.

And the inhibition [2]?
The inhibition was “Dose-dependent effect”.

And the Activity [3]?
Its Activity is 37.5%.

And the inhibition [4]?
The inhibition was “Dose-dependent effect”.

And the pIC50 [5]?
Its pIC50 is 5.39.

What about the pEC50 [6] of the same compound?
The pEC50 was 4.71.

And the Activity [7]?
Its Activity is “Dose-dependent effect”.

And the Activity [8]?
The Activity was “Dose-dependent effect”.

And the inhibition [9]?
The inhibition was “Active”.

And the Activity [10]?
Its Activity is “Active”.

And the Activity [11]?
The Activity was 23.5%.
